Ends that are not written are not given here.
How the values were obtained:
[1] = test system: anti-IDH1R132H antibody (H09); assay: IDH1R132H and IDH1 wildtype peptide coated ELISA; format: binding, mouse; details: 10 μg peptide per well; H09 1:1000; OD at 450 nm (FIG. 1C)
Experimental: ELISA plates (Costar) were coated with IDH1R132H and IDH1wt p118-132, p120-134, p122-136, p124-138, p126-140, p128-142, p130-144, p132-146, p123-142 (10 μg per well in PBS), washed with PBS 0.05% Tween 20, and blocked with 3% FBS in PBS 0.05% Tween 20. As negative controls, MOG p35-55 was used at equal concentrations and peptide diluent PBS 10% DMSO was used at equal volume. As primary antibody monoclonal mouse anti-IDH1R132H (1:1000, H09, Dianova) was used. HRP-conjugated secondary antibody was sheep anti-mouse IgG (1:5000, Amersham). HLA-DRB1*01:01 MHC class II tetramer bound to IDH1R132H p123-142 and HLA-DRB1*01:01 MHC class II tetramer control tetramer bound to CLIP were kindly provided by NIH tetramer core facility and used 1:200 during pre-incubation with H09 for competitive ELISA. Substrate was TMB (ebioscience) and reaction was stopped with 1M H2SO4. OD at 450 nm was measured with an ELISA reader (Thermo Fisher).

[2] = molecular target: HLA-DR in patients' glioma tissue; assay: cell-based or functional assay

binding of anti-IDH1R132H antibody to coated peptide [1] | positivity in the IDH1R132H-MHC class II PLA system (glioma tissue, positivity set to 20 PLA signals per high power field) (of 9 IDH1R132H+ gliomas) [2] | Substance
binds | – | WVKPIIIGHHAYGDQ [WVKPIIIGHHAYGDQ]
binds | – | GWVKPIIIGHHAYGDQYRAT (listed as Homo sapiens) [p123-p142]

Continued, substance first:

Substance | binding of anti-IDH1R132H antibody to coated peptide [1] | positivity in the IDH1R132H-MHC class II PLA system (glioma tissue, positivity set to 20 PLA signals per high power field) (of 9 IDH1R132H+ gliomas) [2]
SGWVKPIIIGHHAYG [SGWVKPIIIGHHAYG] | binds | –
IDH1R132H (endogenous, in human glioma tissue) (from UniProt O75874 2-414) | – | 5
KPIIIGHHAYGDQYR [KPIIIGHHAYGDQYR] | binds | –

Source: patent US20170254803A1, “METHOD FOR THE DETECTION OF ANTIGEN PRESENTATION” (Deutsches Krebsforschungszentrum Stiftung des öffentlichen …, priority 2014, published 2017)
